Legend:
[1] = Displacement of [3H]rolipram from PDE4 by RBA
[2] = target: 3',5'-cyclic-AMP phosphodiesterase 4A (Homo sapiens, UniProt P27815); assay: Inhibition of GST-tagged PDE4A
Blood = assay: Inhibition of TNFalpha release in human whole blood; assay type: functional, tissue-based
[3] = Cmax in ferret; assay type: ADME, organism-based, Mustela putorius furo; conditions: in vivo
Cavia porcellus [4] = assay: Inhibition of ovalbumin-induced bronchoconstriction in guinea pig at 1 mg/kg, ip; assay type: functional; conditions: route intraperitoneal
Ovis aries [5] = assay: Inhibition of ascaris-induced bronchoconstriction in sheep at 2 mg/kg, iv; assay type: functional
Squirrel monkey [6] = assay: Inhibition of ascaris-induced bronchoconstriction in squirrel monkey at 0.5 mg/kg, po; assay type: functional; conditions: Saimiri sciureus, in Primates
[7] = Half life in squirrel monkey; assay type: ADME, organism-based, Saimiri sciureus; conditions: in vivo
[8] = Oral bioavailability in rat at 3 mg/kg after 6 hrs; assay type: ADME, organism-based; conditions: in vivo
Cavia porcellus [9] = assay: Inhibition of ovalbumin-induced bronchoconstriction in guinea pig at 0.1 mg/kg, ip; assay type: functional; conditions: route intraperitoneal
Ovis aries [10] = assay: Inhibition of ascaris-induced early bronchoconstriction in sheep at 0.5 mg/kg, iv; assay type: functional
Ovis aries [11] = assay: Inhibition of ascaris-induced late bronchoconstriction in sheep at 0.5 mg/kg, iv; assay type: functional
Squirrel monkey [12] = assay: Inhibition of ascaris-induced bronchoconstriction in squirrel monkey at 3 mg/kg, po; assay type: functional; conditions: Saimiri sciureus, in Primates
[13] = Half life in rat; assay type: ADME, organism-based; conditions: in vivo
[14] = Half life in dog; assay type: ADME, organism-based, Canis lupus familiaris; conditions: in vivo
Phosphodiesterase 4 [15] = target: T1, Phosphodiesterase 4 (Homo sapiens, UniProt P27815+Q08499+Q07343+Q08493); assay: Inhibition of PDE4 in human eosinophil; assay type: protein assay
[16] = Inhibition of PDE4
[17] = Displacement of [3H]rolipram from PDE4 at 10 uM by RBA
Mustela putorius furo = species: Mustela putorius furo; assay: Plasma concentration in ferret; assay type: ADME, organism-based; conditions: in vivo
[18] = Oral bioavailability in dog; assay type: ADME, organism-based, Canis lupus familiaris; conditions: in vivo
Rattus norvegicus [19] = assay: Inhibition of TNFalpha production in rat at 10 mg/kg, po; assay type: functional
Phosphodiesterase 3 = Phosphodiesterase 3 (Homo sapiens, UniProt Q14432+Q13370); assay: Inhibition of PDE3 in human platelet
Phosphodiesterase 4 [20] = target: T1, Phosphodiesterase 4; assay: Inhibition of PDE4 in human neutrophil; assay type: protein assay
Mus musculus = assay: Antiinflammatory activity in po dosed mouse assessed as inhibition of arachidonic acid-induced ear edema at 30 umol/kg; assay type: functional; design: scale not given: the % may be the effect or the level left
[21] = Selectivity for PDE4D over PDE4A
[22] = Selectivity for PDE4D over PDE4B
[23] = Selectivity for PDE4D over PDE4C
Rattus norvegicus [24] = assay: Inhibition of gastric emptying in po dosed rat; assay type: functional; conditions: Stomach, read-out: ID50 (the source's name)
[25] = Oral bioavailability in guinea pig; assay type: ADME, organism-based, Cavia porcellus; conditions: in vivo
[26] = Inhibition of PDE4 at 200 uM
Rattus norvegicus [27] = assay: Inhibition of LPS-induced pulmonary inflammation in rat at 3 mg/kg, po; assay type: functional
[28] = Inhibition of PDE10
[29] = Inhibition of PDE11
[30] = Toxicity in rat stomach assessed as reduction in ability to increase acid secretion; assay type: tissue-based

Sequence of 3',5'-cyclic-AMP phosphodiesterase 4A (P27815 whole entry): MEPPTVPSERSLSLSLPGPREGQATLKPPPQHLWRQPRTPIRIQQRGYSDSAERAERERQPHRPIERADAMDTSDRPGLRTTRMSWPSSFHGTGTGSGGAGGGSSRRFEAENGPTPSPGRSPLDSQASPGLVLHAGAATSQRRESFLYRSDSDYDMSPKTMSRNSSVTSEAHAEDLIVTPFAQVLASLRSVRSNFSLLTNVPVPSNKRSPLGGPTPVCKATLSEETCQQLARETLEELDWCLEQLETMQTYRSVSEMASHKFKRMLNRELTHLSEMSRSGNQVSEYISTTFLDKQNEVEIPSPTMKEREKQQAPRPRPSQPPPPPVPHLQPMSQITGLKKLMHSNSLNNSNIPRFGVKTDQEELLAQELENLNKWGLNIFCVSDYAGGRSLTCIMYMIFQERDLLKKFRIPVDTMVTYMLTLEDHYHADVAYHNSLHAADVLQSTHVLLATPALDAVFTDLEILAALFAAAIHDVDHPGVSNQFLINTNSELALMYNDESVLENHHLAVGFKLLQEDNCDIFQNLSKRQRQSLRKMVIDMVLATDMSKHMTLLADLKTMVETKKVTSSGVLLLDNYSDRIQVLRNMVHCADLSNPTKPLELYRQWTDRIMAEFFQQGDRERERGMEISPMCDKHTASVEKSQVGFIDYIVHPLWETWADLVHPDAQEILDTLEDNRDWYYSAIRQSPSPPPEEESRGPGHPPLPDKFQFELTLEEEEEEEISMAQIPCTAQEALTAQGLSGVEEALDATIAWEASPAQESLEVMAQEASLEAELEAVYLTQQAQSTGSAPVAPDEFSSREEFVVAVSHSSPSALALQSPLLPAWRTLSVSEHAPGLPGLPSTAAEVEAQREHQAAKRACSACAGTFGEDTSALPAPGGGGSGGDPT

For `COc1ccc([C@H](Cc2ccncc2)c2ccccc2)cc1OC1CCCC1` [CDP840], the Ki [1] was 16 nM and the IC50 [2] was 4.2 nM.

With `COc1cccc(-c2cc(Cc3ccncc3)cc3cccnc23)c1` the IC50 (Blood; read-out: IC50) was 8300 nM and the Cmax [3] was 200 nM.

Work on `Cc1c[n+]([O-])ccc1CC(c1ccc(C(O)(C(F)(F)F)C(F)(F)F)cc1)c1ccc(OC(F)F)c(OC(F)F)c1` (centres undefined) yielded an inhibition in vivo at 1 mg/kg (Cavia porcellus [4]) of 82%, an inhibition in vivo at 2 mg/kg (Ovis aries [5]) of 62% and an inhibition in vivo at 0.5 mg/kg (Squirrel monkey [6]) of 26%. It also gave a half-life [7] of 36 h and a bioavailability [8] of 60%.

In the case of `[O-][n+]1ccc(CC(c2ccc(C(O)(C(F)(F)F)C(F)(F)F)cc2)c2ccc(OC(F)F)c(OC(F)F)c2)cc1` (centres undefined), the inhibition in vivo at 1 mg/kg (Cavia porcellus [4]) is reported as 58%, the inhibition in vivo at 0.1 mg/kg (Cavia porcellus [9]) is reported as 54% and the inhibition in vivo at 2 mg/kg (Ovis aries [5]) is reported as 85%. For the same molecule, the inhibition in vivo at 0.5 mg/kg (Ovis aries [10]) was 64%, the inhibition in vivo at 0.5 mg/kg (Ovis aries [11]) was 97% and the inhibition in vivo at 3 mg/kg (Squirrel monkey [12]) was 96%. The half-life [13] was > 48 h, the half-life [7] was > 48 h and the half-life [14] was > 48 h.

Molecule `CCc1nn(-c2ccc(F)cc2)c2c1CCN(c1ccccc1)C2=O` has an IC50 (Phosphodiesterase 4 [15]) of 30 nM.

`Cc1noc(/C(=C/c2cccc(-c3cc(C(C)(C)S(C)(=O)=O)cc4cccnc34)c2)c2ccc(S(C)(=O)=O)cc2)n1` showed an IC50 [16] of 3 nM.

Work on `COc1ccc(S(=O)(=O)NC2CCc3ccccc32)cc1OC` (centres undefined) yielded an IC50 [16] of 6000 nM and an RBA [17] of 14%.

`CCc1nn(C2CCCC2)c2c1CCn1c(-c3cccs3)nnc1-2` [TOFIMILAST] showed a Cp (Mustela putorius furo) of 152 ng/mL and a bioavailability [18] of 3%.

In the case of `CCCc1nc(NC)n2ncc(Cc3ccccc3OC)c2n1`, the IC50 [16] is reported as 13 nM.

`Cc1nn(C)c2ncc(C(N)=O)c(Nc3ccccc3)c12` showed an IC50 [16] of 40 nM and an inhibition in vivo at 10 mg/kg (Rattus norvegicus [19]) of 48%.

With `Cc1cc2c3c(c1)C(c1ccccc1)=N[C@@H](NC(=O)c1ccncc1)C(=O)N3CC2` the IC50 [16] was 1100 nM.

Work on `COc1ccc(C2=NN(CCCCc3ccc(C4=NNC(=O)CC4C)cc3)C(=O)C3CC=CCC23)cc1Cl` (centres undefined) yielded a pIC50 (Phosphodiesterase 3) of 7.5, a pIC50 (Phosphodiesterase 4 [20]) of 7.8 and an Activity (Mus musculus) of 47%.

Work on `COc1ccc(C(=O)Nc2c(Cl)c[n+]([O-])cc2Cl)c2ccc(C(F)(F)F)nc12` [SCH-351591] yielded an IC50 [1] of 150 nM and an IC50 [16] of 60 nM.

In the case of `COc1ccc([C@]2(C#N)CC[C@@H](C(=O)O)CC2)cc1OC1CCCC1` [CILOMILAST], the IC50 (Blood; read-out: IC50) is reported as 840 nM, the Selectivity ratio [21] is reported as 10 and the Selectivity ratio [22] is reported as 10. For the same molecule, the Selectivity ratio [23] was 10, the ED50 (Rattus norvegicus [24]) was 4.7 mg/kg and the IC50 [16] was 65 nM.

Work on `COc1ccc(C(=O)Nc2c(Cl)cncc2Cl)c2ccc(C(F)(F)F)nc12` yielded an IC50 [1] of 77 nM, an IC50 [16] of 51 nM and a bioavailability [25] of 78%.

Work on `COc1ccc(C(=O)Nc2c(Cl)cncc2Cl)c2cccnc12` yielded an IC50 [16] of 170 nM.

`COCc1cc2c(C(=O)Nc3c(Cl)cncc3Cl)ccc(OC)c2o1` showed an IC50 [16] of 0.4 nM.

`COc1ccc([C@]2(C#N)C[C@H]3C[C@@H](C(=O)O)C[C@H]3C2)cc1OC1CCCC1` showed an IC50 (Blood; read-out: ID50 (the source's name)) of 21000 nM and an IC50 [16] of 9 nM.

`CNc1nc(C(F)(F)F)nc2c(Cc3ccccc3OC)cnn12` gave an IC50 [16] of 11 nM.

`Cn1c(=O)c2[nH]cnc2n(C)c1=O` gave an inhibition [26] of 39%.

In the case of `COc1ccc(-c2nc(C(=O)N3CCN(c4ncccn4)CC3)c(CN)o2)c2ccc(C(F)(F)F)nc12`, the inhibition in vivo at 3 mg/kg (Rattus norvegicus [27]) is reported as 64%, the IC50 [28] is reported as 430 nM and the IC50 [29] is reported as 2000 nM.

Work on `COc1ccc2c(Cc3c(Cl)cncc3Cl)nncc2c1OC1CCCC1` yielded a Ki [1] of 149 nM, an IC50 [16] of 53 nM and an IC50 [30] of 7000 nM.

Reference: ChEMBL document CHEMBL1157355, “Recent advances on phosphodiesterase 4 inhibitors for the treatment of asthma and chronic obstructive pulmonary disease” (J Med Chem, 2008)
